Measurements as given in publication PMC6273209, “Evaluation of the Enantiomer Specific Biokinetics and Radiation Doses of [^18F]Fluspidine—A New Tracer in Clinical Translation for Imaging of σ1 Receptors” (Molecules, 2016).
Where “and” joins values, the source holds several entries; their conditions need not be identical. Equal values may be shown once.

Assay: Human dosimetry estimation from small animal PET/MRI (imaging method)
Type: in vivo, CD-1 mice
Settings: for OD Adrenals / OD Brain / OD Breasts / OD Gallbladder Wall / OD Heart Wall / OD Kidneys / OD LLI Wall / OD Liver / OD Lungs / OD Muscle / OD Osteogenic Cells / OD Ovaries / OD Pancreas / OD Red Marrow / OD Skin / OD Small Intestine / OD Spleen / OD Stomach Wall / OD Testes / OD Thymus / OD Thyroid / OD Total Body / OD ULI Wall / OD Urinary Bladder Wall / OD Uterus / ED Contr. Adrenals / ED Contr. Brain / ED Contr. Breasts / ED Contr. Gallbladder Wall / ED Contr. Heart Wall / ED Contr. Kidneys / ED Contr. LLI Wall / ED Contr. Liver / ED Contr. Lungs / ED Contr. Muscle / ED Contr. Osteogenic Cells / ED Contr. Ovaries / ED Contr. Pancreas / ED Contr. Red Marrow / ED Contr. Skin / ED Contr. Small Intestine / ED Contr. Spleen / ED Contr. Stomach Wall / ED Contr. Testes / ED Contr. Thymus / ED Contr. Thyroid / ED Contr. Total Body / ED Contr. ULI Wall / ED Contr. Urinary Bladder Wall / ED Contr. Uterus: mouse PET/MRI; for OD Adrenals / OD Brain / OD Breasts / OD Gallbladder Wall / OD Heart Wall / OD Kidneys / OD LLI Wall / OD Liver / OD Lungs / OD Muscle / OD Osteogenic Cells / OD Ovaries / OD Pancreas / OD Red Marrow / OD Skin / OD Small Intestine / OD Spleen / OD Stomach Wall / OD Testes / OD Thymus / OD Thyroid / OD Total Body / OD ULI Wall / OD Urinary Bladder Wall / OD Uterus: scaled to human adult male model; for ED Contr. Adrenals / ED Contr. Brain / ED Contr. Breasts / ED Contr. Gallbladder Wall / ED Contr. Heart Wall / ED Contr. Kidneys / ED Contr. LLI Wall / ED Contr. Liver / ED Contr. Lungs / ED Contr. Muscle / ED Contr. Osteogenic Cells / ED Contr. Ovaries / ED Contr. Pancreas / ED Contr. Red Marrow / ED Contr. Skin / ED Contr. Small Intestine / ED Contr. Spleen / ED Contr. Stomach Wall / ED Contr. Testes / ED Contr. Thymus / ED Contr. Thyroid / ED Contr. Total Body / ED Contr. ULI Wall / ED Contr. Urinary Bladder Wall / ED Contr. Uterus / ED: ICRP 103 weighting; for ED ICRP 60 / ED: mouse, imaging (PET/MRI); for ED ICRP 60: ICRP 60 weighting
Description: The animals were initially anesthetized with 4% of isoflurane and were positioned prone in a small-animal PET/MRI system (nanoScan® PET/MRI, MEDISO, Budapest, Hungary) equipped with respiratory monitoring, heated mouse bed (37 °C), and inhalation anesthesia (1.8% isoflurane in a 60% oxygen/40% air gas mixture at 250 mL/min airflow; Anaesthesia Unit U-410, agntho’s, Lidingö, Sweden; Gas blender 100 series, MCQ Instruments, Rome, Italy). Prior to the PET scan, a scout image MR sequence was done to outline the animal dimensions. Female CD-1 mice (age: 12 weeks, weight: 30.9 ± 1.3 g) were injected via the tail vein with (S)-(−)-[^18F]fluspidine (13.2 ± 3.0 MBq; n = 3) or (R)-(+)-[^18F]fluspidine (12.6 ± 1.4 MBq; n = 3) in a volume of 200 μL saline. The injected dose was calculated by the difference of the radioactivity in the syringe before and after the injection. A dynamic whole body animal PET scan of 105 min length (Figure 1) was started simultaneously. This scanning time was chosen to represent the protocol of the human study (after time extrapolation according to Equation (2)) based on a priori biokinetic information from the ex vivo investigation. Following the PET scan, a 20 min T1-weighted whole body MR scan (gradient echo sequence, TR = 20 ms; TE = 3.2 ms) was performed for anatomical orientation after co-registration and attenuation correction at the reconstruction step.
The PET images were iteratively (ordered-subsets expectation maximization, OSEM) reconstructed (preclinical: 4 iterations, 6 subsets; clinical: 4 iterations, 8 subsets) and corrected for decay, randoms, scatter, and dead time, μ-maps for attenuation correction of PET-emission data were derived from the CT or MR [49] structural data, respectively. The PET data were re-binned into 10 time frames (preclinical: 4 × 5 min, 1 × 10 min, and 5 × 15 min; clinical: 4 × 12 min, 3 × 16 min, 1 × 32 min, 1 × 40 min, and 1 × 48 min), and the reconstructed PET/MRI and PET/CT images were co-registered manually with ROVER (ABX, advanced chemical compounds, Radeberg, Germany, version 2.1.17). Quantitative evaluation was performed by drawing volumes of interest (VOI) for brain, gallbladder, large intestine, small intestine, stomach, heart, kidneys, liver, lungs, pancreas, red marrow (backbone, pelvis, sternum), spleen, thyroid, testes, and urinary bladder (Figure S4). The PET derived biokinetic data is expressed as percentage of injected activity (dose) per cubic centimeter (%ID/cm^3).
For human dosimetry estimation from animal biodistribution and PET/MR imaging, animal organ masses and time scale was extrapolated to human magnitudes. At first, the organ-specific animal %ID data were extrapolated to the human scale with the equation (1) %ID/organhuman=%ID/gmouse · morganhuman · mmouse/mhuman with the fraction of the injected activity in the corresponding human organ = %ID/organhuman , the fraction of injected activity per gram animal organ tissue = %ID/gmouse and morganhuman the mass of the corresponding human organ. At second, a time scale extrapolation is needed due to differences in the metabolic rate using the equation (2) thuman=tmouse{mhuman/mmouse}^0.25 including the human time scale = thuman , the animal time scale = tmouse and the ratio of animal and human body weights = mmouse/mhuman .
The human dosimetry estimation was performed with the data extrapolated as well as the genuine human data using OLINDA/EXM software. The time-activity curves were estimated by exponential fitting and calculating the time integral, which equals the number of disintegrations (NODs) per organ during the observation period normalized to 1 Becquerel administered activity dose. […] Therefore, activity data of the urinary bladder was derived from the image for each time point. In contrast, for humans the activity concentration data of the urinary bladder was obtained in a more direct approach. […]

[18F]CC[C@H]1OC2(CCN(Cc3ccccc3)CC2)c2ccccc21 [(R)-(+)-[^18F]fluspidine]
OD values of (R)-(+)-enantiomer relative to (S)-(−)-enantiomer (mice, scaled to human): up to 1.3 fold | OD Adrenals: 11.00 μSv/MBq | OD Brain: 13.20 μSv/MBq | OD Breasts: 6.19 μSv/MBq | OD Gallbladder Wall: 30.10 μSv/MBq | OD Heart Wall: 10.50 μSv/MBq | OD Kidneys: 26.90 μSv/MBq | OD LLI Wall: 13.80 μSv/MBq | OD Liver: 26.10 μSv/MBq | OD Lungs: 10.80 μSv/MBq | OD Muscle: 7.86 μSv/MBq | OD Osteogenic Cells: 14.00 μSv/MBq | OD Ovaries: 11.90 μSv/MBq | OD Pancreas: 24.80 μSv/MBq | OD Red Marrow: 12.80 μSv/MBq | OD Skin: 5.82 μSv/MBq | OD Small Intestine: 22.60 μSv/MBq | OD Spleen: 31.80 μSv/MBq | OD Stomach Wall: 12.70 μSv/MBq | OD Testes: 7.63 μSv/MBq | OD Thymus: 7.52 μSv/MBq | OD Thyroid: 10.10 μSv/MBq | OD Total Body: 9.13 μSv/MBq | OD ULI Wall: 25.60 μSv/MBq | OD Urinary Bladder Wall: 55.70 μSv/MBq | OD Uterus: 13.00 μSv/MBq | ED Contr. Adrenals (scaled to human): 0.09 μSv/MBq | ED Contr. Brain (scaled to human): 0.13 μSv/MBq | ED Contr. Breasts (scaled to human): 0.74 μSv/MBq | ED Contr. Gallbladder Wall (scaled to human): 0.26 μSv/MBq | ED Contr. Heart Wall (scaled to human): 0.09 μSv/MBq | ED Contr. Kidneys (scaled to human): 0.23 μSv/MBq | ED Contr. LLI Wall (scaled to human): 0.83 μSv/MBq | ED Contr. Liver (scaled to human): 1.04 μSv/MBq | ED Contr. Lungs (scaled to human): 1.30 μSv/MBq | ED Contr. Muscle (scaled to human): 0.07 μSv/MBq | ED Contr. Osteogenic Cells (scaled to human): 0.14 μSv/MBq | ED Contr. Ovaries (scaled to human): 0.95 μSv/MBq | ED Contr. Pancreas (scaled to human): 0.21 μSv/MBq | ED Contr. Red Marrow (scaled to human): 1.53 μSv/MBq | ED Contr. Skin (scaled to human): 0.06 μSv/MBq | ED Contr. Small Intestine (scaled to human): 0.20 μSv/MBq | ED Contr. Spleen (scaled to human): 0.27 μSv/MBq | ED Contr. Stomach Wall (scaled to human): 1.52 μSv/MBq | ED Contr. Testes (scaled to human): 0.00 μSv/MBq | ED Contr. Thymus (scaled to human): 0.06 μSv/MBq | ED Contr. Thyroid (scaled to human): 0.41 μSv/MBq | ED Contr. Total Body (scaled to human): 0.00 μSv/MBq | ED Contr. ULI Wall (scaled to human): 1.54 μSv/MBq | ED Contr. Urinary Bladder Wall (scaled to human): 2.23 μSv/MBq | ED Contr. Uterus (scaled to human): 0.11 μSv/MBq | ED ICRP 60 (scaled to human): 15.2 μSv/MBq | ED (scaled to human): 14.0 μSv/MBq | ED (scaled to human, listed as (R)-(+)-[^18F]Fluspidine): 14.0 μSv/MBq

FCC[C@@H]1OC2(CCN(Cc3ccccc3)CC2)c2ccccc21 [(S)-(−)-[^18F]fluspidine]
OD Adrenals: 10.50 μSv/MBq | OD Brain: 10.10 μSv/MBq | OD Breasts: 5.93 μSv/MBq | OD Gallbladder Wall: 25.60 μSv/MBq | OD Heart Wall: 9.85 μSv/MBq | OD Kidneys: 37.60 μSv/MBq | OD LLI Wall: 14.00 μSv/MBq | OD Liver: 25.00 μSv/MBq | OD Lungs: 10.40 μSv/MBq | OD Muscle: 7.57 μSv/MBq | OD Osteogenic Cells: 12.70 μSv/MBq | OD Ovaries: 11.50 μSv/MBq | OD Pancreas: 10.90 μSv/MBq | OD Red Marrow: 10.80 μSv/MBq | OD Skin: 5.61 μSv/MBq | OD Small Intestine: 23.10 μSv/MBq | OD Spleen: 26.10 μSv/MBq | OD Stomach Wall: 10.50 μSv/MBq | OD Testes: 7.46 μSv/MBq | OD Thymus: 7.19 μSv/MBq | OD Thyroid: 7.61 μSv/MBq | OD Total Body: 8.68 μSv/MBq | OD ULI Wall: 20.50 μSv/MBq | OD Urinary Bladder Wall: 58.00 μSv/MBq | OD Uterus: 12.80 μSv/MBq | ED Contr. Adrenals (scaled to human): 0.09 μSv/MBq | ED Contr. Brain (scaled to human): 0.10 μSv/MBq | ED Contr. Breasts (scaled to human): 0.71 μSv/MBq | ED Contr. Gallbladder Wall (scaled to human): 0.22 μSv/MBq | ED Contr. Heart Wall (scaled to human): 0.08 μSv/MBq | ED Contr. Kidneys (scaled to human): 0.32 μSv/MBq | ED Contr. LLI Wall (scaled to human): 0.84 μSv/MBq | ED Contr. Liver (scaled to human): 1.00 μSv/MBq | ED Contr. Lungs (scaled to human): 1.25 μSv/MBq | ED Contr. Muscle (scaled to human): 0.07 μSv/MBq | ED Contr. Osteogenic Cells (scaled to human): 0.13 μSv/MBq | ED Contr. Ovaries (scaled to human): 0.92 μSv/MBq | ED Contr. Pancreas (scaled to human): 0.09 μSv/MBq | ED Contr. Red Marrow (scaled to human): 1.30 μSv/MBq | ED Contr. Skin (scaled to human): 0.06 μSv/MBq | ED Contr. Small Intestine (scaled to human): 0.20 μSv/MBq | ED Contr. Spleen (scaled to human): 0.22 μSv/MBq | ED Contr. Stomach Wall (scaled to human): 1.26 μSv/MBq | ED Contr. Testes (scaled to human): 0.00 μSv/MBq | ED Contr. Thymus (scaled to human): 0.06 μSv/MBq | ED Contr. Thyroid (scaled to human): 0.30 μSv/MBq | ED Contr. Total Body (scaled to human): 0.00 μSv/MBq | ED Contr. ULI Wall (scaled to human): 1.23 μSv/MBq | ED Contr. Urinary Bladder Wall (scaled to human): 2.32 μSv/MBq | ED Contr. Uterus (scaled to human): 0.11 μSv/MBq | ED ICRP 60 (scaled to human): 14.8 μSv/MBq | ED (scaled to human): 12.9 ± 0.4 μSv/MBq and 12.9 μSv/MBq | ED (scaled to human, listed as (S)-(−)-[^18F]Fluspidine): 12.9 μSv/MBq
